From US20150079000A1, “Labelled Quinoxaline Derivatives as Multimodal Radiopharmaceuticals and Their Precursors” (INSTITUT NATIONAL DE LA SANTET DE LA RECHERCHE MEDICALE, priority 2012, published 2015)

Columns and labels:
[1] = octanol/water (PBS buffer) partition coefficient (log D); assay type: physicochemical
[2] = radiochemical stability of the radiotracer after preparation; assay type: physicochemical
B16BL6 tumour = experiment: PET imaging in B16BL6 tumour bearing mice; assay type: in vivo, C57BL/6J mice; conditions: 1 h p.i., day-15
Method: All our studies were performed in accordance with French and European Economic Community (86-609, EEC) guidelines for care of laboratory animals. Protocols were performed under the authorization of the French Direction des Services Veterinaires (authorization no. CE 86-12). Male C57BL/6J mice were originating from Charles River laboratories and maintained at 21° C. with a 12 h/12 h light/dark cycle, fed with a breeding diet (diet A04 from Safe, Villemoisson, France) and received water ad libitum. For transplantation B16BL6 cell suspension were grown in a monolayer culture to confluence, after which cells were trypsinized, washed with phosphate buffer saline (PBS) and they were resuspended in PBS. Mice were anesthetized by isoflurane (4% for induction and 2±0.5% for maintaining in oxygen flux) inhalation. The primary tumour model was induced by subcutaneous injection of 3×10^5 melanoma B16B16 cells in 0.1 mL on the right shoulder of mice.
Whole-body PET scans were acquired 1 h after bolus injection of […] of the appropriate [^18F]-compound in a volume of 0.15 ml via the tail vein. Mice were anesthetized by intraperitoneal (i.p.) administration (200 μL/mouse) of a ketamine-xylazine mixture in saline: ketamine (100 mg/kg, Imalgene™, Rhône Mérieux, Lyon, France) and xylazine (10 mg/kg, Rompun™, Bayer, France) before radiotracer injection and imaged by using a small-animal PET device, eXplore Vista microPET instrument (GE Healthcare). PET images were acquired by using static mode during 20 min. The acquired data were reconstructed using the 2-Dimensional ordered-subsets expectation maximization (OSEM) algorithm and corrected from decay, scatter and randoms. No corrections were applied for partial volume or attenuation.
Regional tracer uptake was quantified by standard region-of-interest (ROI) analysis with eXplore Vista software package. A manual 2D-ROI was drawn around the tumour in each slice where tumour was visible, and on several subsequent coronal planes containing muscle tissue at the forelimb. Results are expressed by percentage of injected dose per gram of tissue (% ID/g).
PET imaging was performed 1 h post injection of tracers in B16BL6 tumour bearing mice at day-15 after tumours cell inoculation.

melanoma B16F0 tumours = experiment: In vivo scintigraphic imaging of [125I]-labelled compounds; parameters: species or system C57BL/6J mice; conditions: planar scintigraphy
From the text: C57BL/6J male mice (6-8 weeks old) were obtained from Charles River (l'Arbresle, France) and the B 16F0 syngenic melanoma from ATCC (no. CRL-6322). Primary melanoma model was induced by subcutaneous injection of B 16F0 murine melanoma cells in C57BL/6J mice. B 16F0 melanoma cell cultures were maintained as monolayers in Dulbecco's Modified Eagle's Medium (DMEM)/Glutamax (Invitrogen, Cergy Pontoise, France) supplemented with 10% fetal calf serum (Sigma, Saint Quentin Fallavier, France), 1% vitamins (Invitrogen, Cergy-Pontoise, France), 1 mM sodium pyruvate (Invitrogen), 1% non essential amino acids (Invitrogen), and 4 μg/mL of gentamycin base (Invitrogen). Cells were grown at 37° C. in a humidified incubator containing 5% CO2. For transplantation, cells in exponential growth phase were trypsinized, washed with phosphate buffer saline (PBS), and resuspended in PBS. C57BL/6J mice anesthetized by isoflurane (2%) inhalation were inoculated with 3×10^5 melanoma B16F0 cells in 0.1 mL of PBS by subcutaneous injection on the right flank.
In vivo scintigraphic imaging protocol was submitted and approved by the french regional ethical animal use committee (CEMEA, Auvergne, authorization no. CE18-09, 2010). Scintigraphic imaging of radioiodinated compounds in mice was performed using a gamma camera dedicated to small animal imaging (γIMAGER, Biospace Mesures, Paris, France). This camera consists of a R 3292 Hamamatsu position-sensitive photomultiplier having a continuous 4 mm thick×120 mm diameter CsI (Na) crystal leading to a 10 cm field of view. For ^125I imaging, the camera was equipped with parallel-hole collimator 1.8/0.2/20 (hole diameter/septum thickness/height in mm). All the acquisitions were performed with a 15% window centered on the 35 keV peak of ^125I.
On day 14 after tumour implantation, each [^125I]-labelled compound was administered intravenously via the tail vein with 3.7 MBq/mouse (range 3-8 animals/compounds). The injected activity to each mouse was also determined from scintigraphic imaging of the syringe before and after the injection of the radiotracer. At different times after administration (1 h, 3 h, 6 h, 24 h, 72 h, 5 d, 7 d, 10 d and 14 d), mice were anaesthetized by i.p. administration (200 μL/mouse) of a ketamine-xylazine mixture in saline: ketamine (100 mg/kg, Imalgene, Rhône Merieux, Lyon, France) and xylazine (10 mg/kg, Rompun, Bayer, France). A 10 min duration image was acquired on anesthetized mice placed in prone position over the collimator of the camera. Reproducibility in animal positioning for the serial images was achieved using a graduated reference grid.
Quantitative analysis of scintigraphic scans was performed using the GAMMAVISION+ software (Biospace Mesures, Paris, France). Regions of interest (ROIs) were manually drawn around the tumour, the whole body area, the bladder, the eyes, the submaxillary and thyroid glands and the controlateral muscle which was chosen as background. For each ROI, total activity, min and max pixel values, ROI size (in mm^2), average activity per mm^2 and standard deviation were obtained. These values were normalized to the injected activity. For the tumour, the activity was also normalized to the tumour weight as previously described (Miot-Noirault, Cancer biotherapy & radiopharmaceuticals, 24 (2009) 629-636) and expressed as percentage of injected dose per gram of tumour (% ID/g).

Compound: CCN(CCNC(=O)c1cnc2cc(I)ccc2n1)Cc1cn(CC[18F])nn1 [[^18F](7)]
- octanol/water (PBS buffer) partition coefficient (log D) [1]: 2.22±0.03
- radiochemically stable at room temperature after preparation [2]: at least 6 h
- muscles activity (B16BL6 tumour): 0.84 % ID/g
- tumour uptake (B16BL6 tumour): 14.55 % ID/g
- tumour/muscle ratio (B16BL6 tumour): 17.41

Compound: CCN(CCNC(=O)c1cnc2cc([125I])ccc2n1)CCOCCOCCOCCF.Cl.Cl [[^125I]3]
- % ID/g (tumour) (melanoma B16F0 tumours; 1 h after i.v. injection): 11.7 ± 2.2 % ID/g
- % ID/g (tumour) (melanoma B16F0 tumours; 3 h after i.v. injection): 12.1 ± 1.7 % ID/g
- % ID/g (tumour) (melanoma B16F0 tumours; 6 h after i.v. injection): 12.1 ± 1.9 % ID/g
- % ID/g (tumour) (melanoma B16F0 tumours; 24 h after i.v. injection): 12.4 ± 2.3 % ID/g
- % ID/g (tumour) (melanoma B16F0 tumours; 72 h after i.v. injection): 8.6 ± 3.6 % ID/g
- % ID/g (tumour) (melanoma B16F0 tumours; 5 d after i.v. injection): 5.8 ± 2.4 % ID/g
- % ID/g (tumour) (melanoma B16F0 tumours; 7 d after i.v. injection): 2.7 ± 0.8 % ID/g
- % ID/g (tumour) (melanoma B16F0 tumours; 10 d after i.v. injection): 1.3 ± 0.4 % ID/g
- % ID/g (tumour) (melanoma B16F0 tumours; 14 d after i.v. injection): 0.6 ± 0.3 % ID/g

Compound: CCN(CCNC(=O)c1cnc2cc([125I])ccc2n1)CCOCCOCCOCCOCCOCCOCCOCCF [[^125I]5]
- % ID/g (tumour) (melanoma B16F0 tumours; 1 h after i.v. injection): 6.8 ± 1.8 % ID/g
- % ID/g (tumour) (melanoma B16F0 tumours; 3 h after i.v. injection): 7.8 ± 1.5 % ID/g
- % ID/g (tumour) (melanoma B16F0 tumours; 6 h after i.v. injection): 7.2 ± 1.1 % ID/g
- % ID/g (tumour) (melanoma B16F0 tumours; 24 h after i.v. injection): 6.8 ± 1.7 % ID/g
- % ID/g (tumour) (melanoma B16F0 tumours; 72 h after i.v. injection): 3.8 ± 0.7 % ID/g
- % ID/g (tumour) (melanoma B16F0 tumours; 5 d after i.v. injection): 2.7 ± 0.3 % ID/g
- % ID/g (tumour) (melanoma B16F0 tumours; 7 d after i.v. injection): 1.5 ± 0.2 % ID/g
- % ID/g (tumour) (melanoma B16F0 tumours; 10 d after i.v. injection): 0.8 ± 0.3 % ID/g
- % ID/g (tumour) (melanoma B16F0 tumours; 14 d after i.v. injection): 0.3 ± 0.01 % ID/g

Compound: CCN(CCNC(=O)c1cnc2cc([125I])ccc2n1)Cc1cn(CCF)nn1 [[^125I]7]
- % ID/g (tumour) (melanoma B16F0 tumours; 1 h after i.v. injection): 13.0 ± 1.5 % ID/g
- % ID/g (tumour) (melanoma B16F0 tumours; 3 h after i.v. injection): 14.5 ± 0.1 % ID/g
- % ID/g (tumour) (melanoma B16F0 tumours; 6 h after i.v. injection): 15.9 ± 1.7 % ID/g
- % ID/g (tumour) (melanoma B16F0 tumours; 24 h after i.v. injection): 15.6 ± 3.4 % ID/g
- % ID/g (tumour) (melanoma B16F0 tumours; 72 h after i.v. injection): 11.0 ± 0.7 % ID/g
- % ID/g (tumour) (melanoma B16F0 tumours; 5 d after i.v. injection): 8.6 ± 0.4 % ID/g
- % ID/g (tumour) (melanoma B16F0 tumours; 7 d after i.v. injection): 5.3 ± 0.8 % ID/g
- % ID/g (tumour) (melanoma B16F0 tumours; 10 d after i.v. injection): 3.7 ± 0.3 % ID/g
- % ID/g (tumour) (melanoma B16F0 tumours; 14 d after i.v. injection): 1.8 ± 0.4 % ID/g
